Data from patent US7812022B2 (GlaxoSmithKline LLC, priority 2004, dated 2010).

Legend:
[1] = target: T1, ErbB2 or EGFR; experiment: ErbB family substrate phosphorylation enzyme assay (HTRF), Method A or Method B; assay type: biochemical
T1 construct: enzymes purified from a baculovirus expression system; Reagent production was conducted essentially as described in Brignola, P. S., et al, (2002) J. Biol. Chem. 277(2): 1576-1585
Procedure, shortened: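 Baculovirus-expressed EGFR or ErbB2 (0.8 or 10 nM in enzyme mix) phosphorylates biotinylated Peptide C with 20 µM ATP and 0.8 µM peptide (substrate-mix levels), MnCl2, pH 7.5. Reaction ran 90 min at 20 °C with EDTA stop and HTRF anti-phosphotyrosine read. Method A: enzyme added last; Method B: 1 h enzyme–compound preincubation.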

[2] = system: BT474 and HN5 tumor cell lines; experiment: Methylene blue growth inhibition assay (cellular Method A); assay type: cell-based, Human; settings: Homo sapiens, BT-474, 72 h, 3 days, read-out: Activity (Method): growth inhibition IC50 class
Procedure, shortened: (§1)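 Colo205, BT474 and HN5 cells in DMEM/10% FBS (BT474 10,000, HN5 3,000 cells/well) treated next day with compound in DMEM, 0.3% final DMSO, for 3 days at 37° C. Biomass stained with methylene blue, solubilized, read at OD 620; IC50 interpolated by nonlinear regression from % inhibition versus vehicle.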

[3] = system: Colo205 tumor cell lines; experiment: Methylene blue growth inhibition assay (cellular Method A), Colo205; assay type: cell-based, Human; settings: Homo sapiens, COLO 205, 72 h, 3 days, read-out: Activity (Method): growth inhibition IC50 class
Procedure, shortened: as §1

[4] = Method B: enzyme mix pre-incubated with compound 1 hour at 20° C., started with substrate mix

Row | Compound | Activity (Method): pIC50 class against ErbB2 or EGFR [1, 4] | IC50 [2] [nM] | IC50 [3] [nM] | Activity (Method): pIC50 class against ErbB2 or EGFR ([1]; Method A: substrate mix added first, reaction started with enzyme mix)
1 | CN1CCN(CCCNc2ccc(Nc3nccc(-c4c(-c5cccc(NC(=O)c6c(F)cccc6F)c5)nn5ccccc45)n3)cc2F)CC1 [Example 42, 2,6-Difluoro-N-[3-(3-{2-[(3-fluoro-4-{[3-(4-methyl-1-piperazinyl)propyl]amino}phenyl)amino]-4-pyrimidinyl}pyrazolo[1,5-a]pyridin-2-yl)phenyl]benzamide] | +++ (B) (at least one pIC50 measurement of greater than 7 against either ErbB2 or EGFR) | < 100 | > 1000 | –
2 | CN(C)CC(=O)Nc1cccc(Nc2nccc(-c3c(-c4cccc(NC(=O)c5c(F)cccc5F)c4)nn4ccccc34)n2)c1 [Example 110, N-(3-{3-[2-({3-[(N,N-dimethylglycyl)amino]phenyl}-amino)-4-pyrimidinyl]pyrazolo[1,5-a]pyridin-2-yl}phenyl)-2,6-difluorobenzamide] | +++ (B) (at least one pIC50 measurement of greater than 7 against either ErbB2 or EGFR) | 100 to 1000 | 100 to 1000 | –
3 | O=C(Nc1cc(-c2nn3ccccc3c2-c2ccnc(Nc3ccc4c(c3)CNCC4)n2)ccc1F)c1c(F)cccc1F [Example 160, 2,6-Difluoro-N-(2-fluoro-5-{3-[2-(1,2,3,4-tetrahydro-7-isoquinolinylamino)-4-pyrimidinyl]pyrazolo[1,5-a]pyridin-2-yl}phenyl)benzamide] | +++ (B) (at least one pIC50 measurement of greater than 7 against either ErbB2 or EGFR) | < 100 | < 100 | –
4 | COc1ccc(Nc2nccc(-c3c(-c4cccc(NC(=O)c5c(F)cccc5F)c4)nn4ccccc34)n2)cc1N1CCN(C)CC1 [Example 201, 2,6-Difluoro-N-{3-[3-(2-{[4-(methyloxy)-3-(4-methyl-1-piperazinyl)phenyl]amino}-4-pyrimidinyl)pyrazolo[1,5-a]pyridin-2-yl]phenyl}benzamide] | +++ (B) (at least one pIC50 measurement of greater than 7 against either ErbB2 or EGFR) | < 100 | 100 to 1000 | –
5 | Cc1nc2cc(Nc3nccc(-c4c(-c5cccc(NC(=O)c6c(F)cccc6F)c5)nn5ccccc45)n3)ccc2s1 [Example 199, 2,6-Difluoro-N-[3-(3-{2-[(2-methyl-1,3-benzothiazol-5-yl)amino]-4-pyrimidinyl}pyrazolo[1,5-a]pyridin-2-yl)phenyl]benzamide] | +++ (B) (at least one pIC50 measurement of greater than 7 against either ErbB2 or EGFR) | < 100 | > 1000 | –
6 | Cn1cccc1C(=O)Nc1cccc(-c2nn3ccccc3c2-c2ccnc(Nc3cccc(C#N)c3)n2)c1 [Example 150, N-{3-[3-(2-(3-Cyanophenyl)amino-4-pyrimidinyl)-pyrazolo[1,5-b]pyridin-2-yl]-phenyl}-1-methyl-1H-pyrrole-2-carboxamide] | +++ (B) (at least one pIC50 measurement of greater than 7 against either ErbB2 or EGFR) | < 100 | > 1000 | –
7 | CN(C)CCCOc1ccc(Nc2nccc(-c3c(-c4cccc(NC(=O)c5c(F)cccc5F)c4)nn4ccccc34)n2)cc1Cl [Example 126, N-[3-(3-{2-[(3-Chloro-4-{[3-(dimethylamino)propyl]-oxy}phenyl)amino]-4-pyrimidinyl}pyrazolo[1,5-a]pyridin-2-yl)phenyl]-2,6-difluorobenzamide] | +++ (B) (at least one pIC50 measurement of greater than 7 against either ErbB2 or EGFR) | < 100 | 100 to 1000 | –
8 | COc1cccc(C(=O)Nc2cccc(-c3nn4ccccc4c3-c3ccnc(Nc4ccc5c(c4)OCCO5)n3)c2)c1 [Example 5, N-(3-{3-[2-(2,3-Dihydro-benzo[1,4]dioxin-6-ylamino)-pyrimidin-4-yl]-pyrazolo[1,5]-pyridin-2-yl}-phenyl)-3-methoxy-benzamide] | – | 100 to 1000 | > 1000 | +++ (A) (at least one pIC50 measurement of greater than 7 against either ErbB2 or EGFR)
